In the supplement of paper PMC10307832:

Columns and labels:
Assay in all cases: relative viability (nuclei count vs DMSO), 5 days (fraction); higher = more cells survive
[1] = compound: COc1cc(Nc2ncc3c(n2)-c2ccc(Cl)cc2C(c2c(F)cccc2OC)=NC3)ccc1C(=O)O [Alisertib] + Nc1ncn([C@H]2C[C@H](O)[C@@H](CO)O2)c(=O)n1 [Decitabine] (partner 2 µM)
Summary of the method: (§1)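 Values are medians from duplicate plates. Each reflects relative viability, defined as the nuclei count of treated wells over that of vehicle wells. Lung cancer cell lines in 1536-well plates were pin-tool dosed one day after seeding with one drug alone or with a fixed anchor-drug dose plus five library-drug doses (not always all listed) in √10 steps, then fixed, stained and imaged at 4× after 5 days.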

[2] = compound: COc1cc(Nc2ncc3c(n2)-c2ccc(Cl)cc2C(c2c(F)cccc2OC)=NC3)ccc1C(=O)O [Alisertib] + COc1cc2c(Oc3ccc(NC(=O)C4(C(=O)Nc5ccc(F)cc5)CC4)cc3F)ccnc2cc1OCCCN1CCOCC1 [Foretinib] (partner 0.25 µM)
Summary of the method: as §1

[3] = compound: COc1cc(Nc2ncc3c(n2)-c2ccc(Cl)cc2C(c2c(F)cccc2OC)=NC3)ccc1C(=O)O [Alisertib] + CCNC(=O)c1noc(-c2cc(C(C)C)c(O)cc2O)c1-c1ccc(CN2CCOCC2)cc1 [Luminespib] (partner 0.01 µM)
Summary of the method: as §1

[4] = compound: COc1cc(Nc2ncc3c(n2)-c2ccc(Cl)cc2C(c2c(F)cccc2OC)=NC3)ccc1C(=O)O [Alisertib] + Cc1nc(Nc2ncc(C(=O)Nc3c(C)cccc3Cl)s2)cc(N2CCN(CCO)CC2)n1 [Dasatinib] (partner 0.075 µM)
Summary of the method: as §1

Cell Line | relative viability ([1]; first compound 0.005 µM) | relative viability ([1]; first compound 0.01581 µM) | relative viability ([1]; first compound 0.05 µM) | relative viability ([1]; first compound 0.1581 µM) | relative viability ([1]; first compound 0.5 µM) | relative viability ([2]; first compound 0.005 µM) | relative viability ([2]; first compound 0.01581 µM) | relative viability ([2]; first compound 0.05 µM) | relative viability ([2]; first compound 0.1581 µM) | relative viability ([2]; first compound 0.5 µM) | relative viability ([3]; first compound 0.005 µM) | relative viability ([3]; first compound 0.01581 µM) | relative viability ([3]; first compound 0.05 µM) | relative viability ([3]; first compound 0.1581 µM) | relative viability ([3]; first compound 0.5 µM) | relative viability ([4]; first compound 0.005 µM) | relative viability ([4]; first compound 0.01581 µM) | relative viability ([4]; first compound 0.05 µM) | relative viability ([4]; first compound 0.1581 µM) | relative viability ([4]; first compound 0.5 µM)
201T | 0.837 | 0.847 | 0.72 | 0.582 | 0.802 | 1.14 | 0.997 | 1.02 | 0.453 | 0.271 | 1.16 | 0.971 | 0.816 | 0.576 | 0.362 | 0.527 | 0.556 | 0.583 | 0.327 | 0.284
A549 | 0.247 | 0.207 | 0.125 | 0.0435 | 0.0399 | 0.977 | 0.492 | 0.209 | 0.0402 | 0.0374 | – | – | – | – | – | – | – | – | – | –
A-427 | 0.52 | 0.442 | 0.233 | 0.211 | 0.211 | 0.877 | 0.777 | 0.197 | 0.182 | 0.178 | 0.916 | 0.576 | 0.243 | 0.141 | 0.209 | 0.645 | 0.565 | 0.291 | 0.139 | 0.128
ABC-1 | 1.12 | 0.915 | 0.869 | 0.598 | 0.33 | 1.08 | 1.06 | 0.58 | 0.344 | 0.22 | – | – | 0.491 | 0.366 | 0.136 | 0.46 | 0.436 | 0.434 | 0.226 | 0.243
BEN | 0.607 | 0.51 | 0.304 | 0.363 | 0.325 | 0.486 | 0.57 | 0.277 | 0.213 | 0.21 | 0.309 | 0.161 | 0.133 | 0.115 | 0.141 | 0.499 | 0.39 | 0.296 | 0.178 | 0.138
CAL-12T | – | – | – | – | – | 0.995 | 0.821 | 0.231 | 0.231 | 0.212 | 0.412 | 0.205 | 0.1 | 0.169 | 0.188 | 0.275 | 0.158 | 0.0813 | 0.113 | 0.0899
COR-L23 | 0.422 | 0.419 | 0.307 | 0.146 | 0.118 | 0.848 | 0.823 | 0.606 | 0.243 | 0.128 | 0.585 | 0.568 | 0.303 | 0.0956 | 0.0981 | 0.486 | 0.439 | 0.23 | 0.0935 | 0.0796
COR-L 105 | 0.633 | 0.698 | 0.481 | 0.349 | 0.324 | 0.937 | 1.11 | 0.919 | 0.662 | 0.271 | 0.773 | 0.685 | 0.56 | 0.382 | 0.252 | 0.291 | 0.296 | 0.293 | 0.194 | 0.177
Calu-6 | – | – | – | – | – | 0.855 | 0.599 | 0.228 | 0.155 | 0.137 | – | – | – | – | – | – | – | – | – | –
ChaGo-K-1 | 0.518 | 0.423 | 0.222 | 0.197 | 0.19 | 0.922 | 0.845 | 0.237 | 0.21 | 0.192 | 0.565 | 0.451 | 0.258 | 0.169 | 0.217 | 0.488 | 0.6 | 0.277 | 0.165 | 0.162
EBC-1 | – | – | – | – | – | 0.109 | 0.103 | 0.08 | 0.0764 | 0.0821 | – | – | – | – | – | – | – | – | – | –
EKVX | 0.303 | 0.302 | 0.206 | 0.174 | 0.158 | 0.954 | 0.812 | 0.194 | 0.195 | 0.202 | 0.711 | 0.74 | 0.356 | 0.168 | 0.169 | 0.541 | 0.47 | 0.243 | 0.244 | 0.229
EMC-BAC-2 | 0.849 | 0.694 | 0.445 | 0.343 | 0.291 | 0.922 | 0.838 | 0.318 | 0.252 | 0.203 | 1.09 | 0.967 | 0.395 | 0.292 | 0.23 | 0.315 | 0.221 | 0.185 | 0.161 | 0.128
EPLC-272H | 0.344 | 0.363 | 0.295 | 0.141 | 0.152 | 0.733 | 0.554 | 0.152 | 0.0794 | 0.133 | 0.275 | 0.166 | 0.122 | 0.112 | 0.134 | 0.304 | 0.365 | 0.382 | 0.0703 | 0.0736
H3255 | 0.602 | 0.467 | 0.396 | 0.241 | 0.143 | 0.823 | 0.821 | 0.573 | 0.219 | 0.177 | 0.753 | 0.841 | 0.522 | 0.259 | 0.212 | 0.328 | 0.445 | 0.279 | 0.242 | 0.292
HARA | 0.524 | 0.58 | 0.334 | 0.208 | 0.145 | 0.864 | 0.663 | 0.316 | 0.148 | 0.101 | 0.682 | 0.428 | 0.209 | 0.0919 | 0.0942 | 0.265 | 0.283 | 0.279 | 0.125 | 0.0962
HCC-15 | 0.541 | 0.316 | 0.19 | 0.13 | 0.139 | 0.999 | 0.627 | 0.184 | 0.139 | 0.129 | 0.327 | 0.371 | 0.167 | 0.108 | 0.128 | 0.45 | 0.332 | 0.232 | 0.104 | 0.102
HCC-44 | 0.895 | 0.937 | 0.849 | 0.419 | 0.364 | – | – | – | – | – | 0.91 | 0.667 | 0.355 | 0.18 | 0.176 | – | – | – | – | –
HCC-78 | 0.635 | 0.507 | 0.316 | 0.29 | 0.298 | 0.548 | 0.438 | 0.329 | 0.238 | 0.275 | – | – | – | – | – | 0.379 | 0.369 | 0.177 | 0.171 | 0.188
